Calls of active or inactive are those of the source.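 How the source made its calls: active means growth down by 35% or more in duplicate, reached at no more than twice the top tested dose; inactive means growth raised instead, and the rest.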
Test system: not listed separately
Assay: P. aeruginosa growth delay under iron chelation, dose response, absorbance, plate reader, cherry-picks (AID 602389)
Details: P. aeruginosa growth with EDDHA, OD600, 24-30 h; at 50 µM (top of the series)
For `CCOC(=O)N1CCN(c2ccc(Cl)cc2)CC1`, the growth change, negative = inhibition was -0.021% (inactive). In the case of `Cc1cc(NC(=O)c2cc([N+](=O)[O-])cc([N+](=O)[O-])c2C)no1`, the growth change, negative = inhibition is reported as 5.73% (inactive). In the case of `COc1ccc(C(C#N)c2ccc(Cl)nn2)cc1` (stereo not drawn), the growth change, negative = inhibition is reported as -3.93% (inactive). In the case of `CSC1=N/C(=C\C=C\c2cccs2)C(=O)S1`, the growth change, negative = inhibition is reported as 13.6% (inactive). In the case of `COc1ccc(-c2cc3ncccc3cn2)cc1`, the growth change, negative = inhibition is reported as 7% (inactive). For `CCOC(=O)c1ccc(N2Cc3ccccc3C2=N)cc1`, the growth change, negative = inhibition was -6.69% (inactive). For `COc1ccccc1C(C#N)c1cccc(Cl)n1` (stereo not drawn), the growth change, negative = inhibition was 5.02% (inactive). With `Cc1ccc(C(C#N)c2ccc(Cl)nn2)cc1` (stereo not drawn) the growth change, negative = inhibition was -0.103% (inactive). For `Cc1ccc(C)c(S(=O)(=O)NC2CCSC2=O)c1` (stereo not drawn), the growth change, negative = inhibition was -4.84% (inactive). For `Cc1ccc(O)c(C(=O)/C=C/c2ccc3c(c2)OCCO3)c1`, the growth change, negative = inhibition was 19.8% (inactive). For `O=C(NC1CCCC1)c1cccc(Cl)c1`, the growth change, negative = inhibition was 7.87% (inactive). For `N#CC(c1ccc(Cl)nn1)c1ccccc1Cl` (stereo not drawn), the growth change, negative = inhibition was -4.43% (inactive). In the case of `CCOC(=O)CC(C#N)c1cn(C)c2ccccc12` (stereo not drawn), the growth change, negative = inhibition is reported as -0.14% (inactive). For `CN(Cc1ccccc1)c1ncnc2ccc(Br)cc12`, the growth change, negative = inhibition was 9.04% (inactive). With `N#Cc1cc([N+](=O)[O-])ccc1N1CCCC1` the growth change, negative = inhibition was -11.4% (inactive). With `COc1ccc(/C(C#N)=C/c2cccnc2)cc1` the growth change, negative = inhibition was -1.53% (inactive). With `N#CCn1c(C2CCCCC2)nc2ccccc2c1=O` the growth change, negative = inhibition was 17.3% (inactive). For `CSc1nnc(-c2ccc([N+](=O)[O-])cc2)o1`, the growth change, negative = inhibition was -9.96% (inactive). For `Cc1ccc(S(=O)c2ccc(C)cc2)cc1`, the growth change, negative = inhibition was 0.078% (inactive). With `Cc1ccc2nc(-c3ccc4c(c3)OCCO4)cn2c1` the growth change, negative = inhibition was 3.5% (inactive). In the case of `O=C1C=C(c2cccc(Cl)c2)C[C@@H](c2ccc(F)cc2)C1`, the growth change, negative = inhibition is reported as 17.4% (inactive). In the case of `COc1ccc(N=C(C)C2=C(O)CSC2=O)cc1`, the growth change, negative = inhibition is reported as 15.6% (inactive). For `CCC(C)NS(=O)(=O)c1ccc(OC)c(Cl)c1Cl` (stereo not drawn), the growth change, negative = inhibition was -10.7% (inactive). With `N#CC(c1ccccc1)c1cccc(Cl)n1` (stereo not drawn) the growth change, negative = inhibition was -11.7% (inactive). For `N#CC(c1ccc(Cl)nn1)c1c(F)cccc1Cl` (stereo not drawn), the growth change, negative = inhibition was 15% (inactive). With `CC(C)N=C(NC#N)SCc1ccccc1F` the growth change, negative = inhibition was -1.36% (inactive). In the case of `N#CC(c1ccc(Cl)cc1)c1ncc(C(F)(F)F)cc1Cl` (stereo not drawn), the growth change, negative = inhibition is reported as -14% (inactive). For `CCOC(=O)c1ccc(-c2ccc(CO)o2)cc1`, the growth change, negative = inhibition was -6.54% (inactive). In the case of `O=S1(=O)CCOC[C@H](c2ccccc2)N1Cc1cccc(Cl)c1`, the growth change, negative = inhibition is reported as 7.06% (inactive). For `COC(=O)c1ccc(NC(=S)N2CCCC2)cc1`, the growth change, negative = inhibition was 12% (inactive). In the case of `CCOC1=CC(=O)OC(c2ccccc2)C1` (stereo not drawn), the growth change, negative = inhibition is reported as 3.24% (inactive). With `COc1ccc(CNCc2cccc(Cl)c2)cc1` the growth change, negative = inhibition was 4.12% (inactive). For `Clc1ccc2scc(CN3CCCC3)c2c1`, the growth change, negative = inhibition was -1.16% (inactive). For `Cc1cc(NC(=O)c2cc([N+](=O)[O-])ccc2Cl)no1`, the growth change, negative = inhibition was 24.8% (inactive). In the case of `Cc1cc(C)nc(N(C#N)Cc2cccc([N+](=O)[O-])c2)n1`, the growth change, negative = inhibition is reported as 12.9% (inactive). With `Clc1ccc2scc(CN3CCCCC3)c2c1` the growth change, negative = inhibition was -3.92% (inactive). In the case of `CCOC(=O)c1ccc(-c2ccc(C=O)o2)cc1`, the growth change, negative = inhibition is reported as 7.58% (inactive). With `N#C/C(=C/c1ccco1)c1nc2ccccc2s1` the growth change, negative = inhibition was 18.7% (inactive). In the case of `N#CC(c1ccc(Cl)cc1)c1ccc(Cl)nn1` (stereo not drawn), the growth change, negative = inhibition is reported as -4.67% (inactive). In the case of `O=C1C2C(C(=O)N1Cc1ccco1)C1C=CC2C12CC2` (stereo not drawn), the growth change, negative = inhibition is reported as 2.46% (inactive). For `O=CC1=C(c2ccccc2)Oc2ccccc2O1`, the growth change, negative = inhibition was -4.48% (inactive). In the case of `O=CN(c1ccccc1)c1ccc2ccccc2c1`, the growth change, negative = inhibition is reported as -5.6% (inactive). For `Cn1cccc1C(C#N)c1cccc(F)c1C#N` (stereo not drawn), the growth change, negative = inhibition was 7.38% (inactive). In the case of `O=C(NC1CCSC1)c1cccc(Cl)c1` (stereo not drawn), the growth change, negative = inhibition is reported as 2.12% (inactive). In the case of `OC(c1cccc(Cl)c1)c1nccc2ccccc12` (stereo not drawn), the growth change, negative = inhibition is reported as -6.69% (inactive). With `CC(C)(C)NC(=O)c1cc(Cl)ccc1[N+](=O)[O-]` the growth change, negative = inhibition was 12.1% (inactive). With `O=[N+]([O-])c1ccc(N2CCCCC2)nc1` the growth change, negative = inhibition was -2.09% (inactive). For `Cc1cccc(NC(=O)c2ccc3c(c2)OCCO3)n1`, the growth change, negative = inhibition was 2.6% (inactive). For `CO/N=C/c1cn(-c2ccc(Cl)cc2)nn1`, the growth change, negative = inhibition was -0.342% (inactive). In the case of `Cc1ccc(S(=O)(=O)NCCC(C)C)cc1[N+](=O)[O-]`, the growth change, negative = inhibition is reported as 1.56% (inactive). With `CCCCCC1CC(COc2ccccc2)OC1=O` (stereo not drawn) the growth change, negative = inhibition was -10.5% (inactive). For `COc1ccc(N2CCN(C(=O)c3ccc(Br)o3)CC2)cc1`, the growth change, negative = inhibition was -4.3% (inactive). For `CCOc1ccc(CNC2CCCc3ccccc32)cc1` (stereo not drawn), the growth change, negative = inhibition was 20.8% (inactive). With `O=C(c1cccc([N+](=O)[O-])c1)N1CC2C3C=CC(C3)C2C1` (stereo not drawn) the growth change, negative = inhibition was 5.48% (inactive). In the case of `N#CC(Sc1ccccn1)c1ccc(Cl)cc1` (stereo not drawn), the growth change, negative = inhibition is reported as 15.4% (inactive). With `O=C1N[C@@H](Cc2ccccc2)[C@@H](c2ccco2)O1` the growth change, negative = inhibition was 16.2% (inactive). In the case of `CCOC(=O)/C=C(\C)Sc1cc(=O)oc2ccccc12`, the growth change, negative = inhibition is reported as 19.4% (inactive). In the case of `Cc1cc(NC(=O)c2c(F)c(F)c(F)c(F)c2F)no1`, the growth change, negative = inhibition is reported as 14.5% (inactive). With `CCOC(=O)c1cnc(-c2ccccc2)nc1N` the growth change, negative = inhibition was -4.77% (inactive). With `COc1ccc(/C=C/C(=O)c2ccoc2)cc1` the growth change, negative = inhibition was 4.86% (inactive). With `Cn1cccc1C(=O)OCc1cc(-c2ccco2)on1` the growth change, negative = inhibition was 6.86% (inactive). In the case of `CCCNS(=O)(=O)c1ccc(OC)c(Cl)c1Cl`, the growth change, negative = inhibition is reported as -7.21% (inactive). With `COC(=O)c1ccc(OC(=O)c2ccco2)cc1` the growth change, negative = inhibition was -12.9% (inactive). With `COC(=O)c1ccc(/C=C(\C#N)c2ccccn2)cc1` the growth change, negative = inhibition was 9.37% (inactive). With `O=C(NC1CCCCCCC1)c1cccc(Cl)c1` the growth change, negative = inhibition was -14.2% (inactive). In the case of `O=C(NC1CCCC1)c1cc(Cl)ccc1[N+](=O)[O-]`, the growth change, negative = inhibition is reported as 7.04% (inactive). For `Nc1ccc(OCc2ccccc2)cc1[N+](=O)[O-]`, the growth change, negative = inhibition was 3.9% (inactive). For `O=C(NCC1CC1)c1cc([N+](=O)[O-])cc([N+](=O)[O-])c1`, the growth change, negative = inhibition was 7.47% (inactive). For `Cc1cccc(NC(=O)Nc2cc(C)on2)c1`, the growth change, negative = inhibition was 2.69% (inactive). For `CCOc1ccc(-n2cccc2C=O)cc1`, the growth change, negative = inhibition was 1.21% (inactive). In the case of `Clc1cccc(CNCCCSc2ncccn2)c1`, the growth change, negative = inhibition is reported as -7.39% (inactive). With `Cn1cccc1C(C#N)c1ccccc1C#N` (stereo not drawn) the growth change, negative = inhibition was 9.31% (inactive). In the case of `O=[N+]([O-])c1ccc(-c2cccnc2)cc1`, the growth change, negative = inhibition is reported as -3.69% (inactive). For `Cc1cc(S(=O)(=O)NCC2CC2)c(Cl)cc1Cl`, the growth change, negative = inhibition was 9.74% (inactive). In the case of `CC(C)CCNC(=O)c1cccc(Cl)c1`, the growth change, negative = inhibition is reported as -12.3% (inactive). In the case of `O=[N+]([O-])c1ccc(N2CCCCC2)cc1`, the growth change, negative = inhibition is reported as 8.85% (inactive). In the case of `CCNC(=O)COc1ccc2ccccc2c1`, the growth change, negative = inhibition is reported as 3.07% (inactive). For `COC(=O)c1cc(-c2ccc(OC)cc2)on1`, the growth change, negative = inhibition was -7.05% (inactive). In the case of `N#CC1C(C#N)C2CCC1C1C2N1c1ccccc1` (stereo not drawn), the growth change, negative = inhibition is reported as -7.23% (inactive). For `N#CC(c1ccc(Cl)nn1)c1ccc(Cl)cc1Cl` (stereo not drawn), the growth change, negative = inhibition was -0.745% (inactive). In the case of `O=CNC1(c2ccccc2)CCCCC1`, the growth change, negative = inhibition is reported as -5.85% (inactive). In the case of `CCOC(=O)c1cc2c(s1)-c1c(C)cccc1OC2`, the growth change, negative = inhibition is reported as 6.54% (inactive). For `O=C(/C=C/c1cccs1)c1cc(Cl)ccc1O`, the growth change, negative = inhibition was 18.9% (inactive). In the case of `O=C(Nc1ncc([N+](=O)[O-])s1)c1cccc([N+](=O)[O-])c1`, the growth change, negative = inhibition is reported as -9.89% (inactive). For `O=C1C2C3C=CC(C4CC34)C2C(=O)N1Cc1ccco1` (stereo not drawn), the growth change, negative = inhibition was 43.3% (inactive). In the case of `O=C1C=C(c2cc(F)ccc2F)C[C@@H](c2ccc(F)cc2)C1`, the growth change, negative = inhibition is reported as -1.93% (inactive). For `COC(=O)c1ccc(OC(=O)c2cccs2)cc1`, the growth change, negative = inhibition was 6.21% (inactive). In the case of `Cc1ccc2scc(CN3CCCC3)c2c1`, the growth change, negative = inhibition is reported as -6.73% (inactive). In the case of `N#CC(c1cccc(Cl)c1)c1ncc(C(F)(F)F)cc1Cl` (stereo not drawn), the growth change, negative = inhibition is reported as 1.76% (inactive). For `O=[N+]([O-])c1ccc(N2CCCC2)nc1`, the growth change, negative = inhibition was 9.43% (inactive). For `CCOC(=O)CCCn1ncn2c(cc3occc32)c1=O`, the growth change, negative = inhibition was -2.87% (inactive).

Test system: P. aeruginosa growth with EDDHA, OD600, 24-30 h
Assay: as above
Details: not given
Work on `N#CC(c1ccc(Cl)cc1)c1cccc(Cl)n1` (stereo not drawn) yielded an AC35 of 41.2 µM. In the case of `Cc1cc(NC(=O)Nc2ccccc2[N+](=O)[O-])no1`, the AC35 is reported as > 50 µM (inactive). With `c1ccn2cc(-c3ccc4c(c3)OCCO4)nc2c1` the AC35 was > 50 µM (inactive). With `Cc1cccc(C(C#N)c2ccc(Cl)nn2)c1` (stereo not drawn) the AC35 was > 50 µM (inactive). In the case of `Cc1cc(C)nc(N(C#N)Cc2ccccc2)n1`, the AC35 is reported as > 50 µM (inactive). With `O=C(NC1CCS(=O)(=O)C1)c1cccc(Br)c1` (stereo not drawn) the AC35 was > 50 µM (inactive). `COC(=O)c1cc(-c2ccc(Br)cc2)on1` gave an AC35 of 47 µM.

— PubChem BioAssay AID602389 (Broad Institute, 2012)
